From patent US7250442B2, “Dihydroindol-2-one derivatives as steroid hormone nuclear receptor modulators” (Eli Lilly and Company, priority 2003, dated 2007)

Target: T1, glucocorticoid receptor (Homo sapiens, UniProt P04150)
T1 construct: host or cells: A549 human lung epithelial cells (sonicated cell extract)
T1 sequence (P04150 1-777): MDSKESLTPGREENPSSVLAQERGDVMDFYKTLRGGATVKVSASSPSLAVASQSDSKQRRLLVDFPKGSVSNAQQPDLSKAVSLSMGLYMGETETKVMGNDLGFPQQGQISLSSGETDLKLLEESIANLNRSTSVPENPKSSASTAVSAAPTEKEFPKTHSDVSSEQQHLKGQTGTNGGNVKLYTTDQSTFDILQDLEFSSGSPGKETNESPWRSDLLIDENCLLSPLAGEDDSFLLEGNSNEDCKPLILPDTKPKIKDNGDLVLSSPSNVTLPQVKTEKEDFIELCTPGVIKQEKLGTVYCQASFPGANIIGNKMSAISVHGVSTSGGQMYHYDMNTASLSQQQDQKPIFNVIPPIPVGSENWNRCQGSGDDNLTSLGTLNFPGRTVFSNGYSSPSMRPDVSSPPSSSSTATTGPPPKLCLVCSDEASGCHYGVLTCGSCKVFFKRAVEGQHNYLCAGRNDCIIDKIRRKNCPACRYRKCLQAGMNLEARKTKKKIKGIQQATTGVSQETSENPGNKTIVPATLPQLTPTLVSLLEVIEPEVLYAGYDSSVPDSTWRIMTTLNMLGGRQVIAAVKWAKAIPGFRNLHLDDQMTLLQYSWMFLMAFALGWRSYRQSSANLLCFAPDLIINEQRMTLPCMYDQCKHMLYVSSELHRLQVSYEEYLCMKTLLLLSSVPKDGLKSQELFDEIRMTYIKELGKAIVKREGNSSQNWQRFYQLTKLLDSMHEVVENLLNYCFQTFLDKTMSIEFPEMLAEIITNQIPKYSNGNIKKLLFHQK
Experiment: Glucocorticoid Receptor Binding Assay ([3H]-dexamethasone displacement, A549 cell extract)
Conditions: A549 human lung epithelial cell extract, 1.86 nM [3H]-dexamethasone; read-out: GR Ki
Method: Glucocorticoid Receptor Binding Assay:
A549 human lung epithelial cells (ATCC) are grown at a scale where gram quantity cell pellets are obtained. Harvested cell pellets are washed twice in cold phosphate buffered saline, centrifuged, and resuspended in cold assay binding buffer. The assay binding buffer consists of 10% glycerol, 50 mM Tris-HCl (pH7.2), 75 mM sodium chloride, 1.5 mM magnesium chloride, 1.5 mM EDTA, and 10 mM sodium molybdate. Cell suspensions were lysed via sonication, centrifuged, and the “extract” supernatant is snap frozen and stored at −80C. until needed.
GR binding assays are performed in a final volume of 140 ul containing 50-200 ug of A549 cell extract and 1.86 nM [^3H]-dexamethasone (Amersham) plus varying concentrations of test compound or vehicle. Briefly, assays are prepared at RT in 96-well Fisher 3356 plates, each well containing 100 ul of A549 cell extract, 20 ul of [^3H]-dexamethasone, and 20 ul of test compound/vehicle. Incubations are carried out at 4 degrees celsius for 16 hours. After incubation, 70 ul of 3× dextran-coated charcoal solution is added to each reaction, mixed, and incubated for 8 minutes at RT. 3×-dextran-coated charcoal solution consists of 250 ml assay binding buffer, 3.75 g Norit A charcoal (Sigma), and 1.25 g dextran T-70 (Amersham). Charcoal/unbound radioligand complexes are removed by centrifugation of the plate and 140 ul of supernatant from each well is transferred to another 96 well Optiplate (Packard Instruments). 200 ul of Microscint-20 scinillant (Packard Instruments) is added to each well and amount of receptor bound radioligand is determined using Packard Instruments TopCount instrument.
IC50 values, defined as the concentration of test compound required to decrease [^3H]-dexamethasone binding by 50%, are then determined. Ki values for each respective test compound can then be calculated by application of the Cheng-Prusoff equation as described in Cheng et al., Relationship Between The Inhibition Constant (Ki) and The Concentration of Inhibitor Which Causes 50% Inhibition (IC50) of an Enzymatic Reaction, Biochem. Pharmacol., 22: 3099-31088; (1973).

Cc1cc(C2(c3cc(C)c(O)c(C)c3)C(=O)N(Cc3ccc(Br)cc3)c3ccccc32)cc(C)c1O [Example 58, 1-(4-Bromo-benzyl)-3,3-bis-(4-hydroxy-3,5-dimethyl-phenyl)-1,3-dihydro-indol-2-one]
Ki: ≤ 500 nM

Cc1cc(C2(c3cc(C)c(O)c(C)c3)C(=O)N(Cc3ccc([N+](=O)[O-])cc3)c3ccccc32)cc(C)c1O [Example 62, 3,3-Bis-(4-hydroxy-3,5-dimethyl-phenyl)-1-(4-nitro-benzyl)-1,3-dihydro-indol-2-one]
Ki: ≤ 500 nM

Cc1cc(C2(c3cc(C)c(O)c(C)c3)C(=O)N(Cc3ccccc3Br)c3ccccc32)cc(C)c1O [Example 63, 1-(2-Bromo-benzyl)-3,3-bis-(4-hydroxy-3,5-dimethyl-phenyl)-1,3-dihydro-indol-2-one]
Ki: ≤ 500 nM

Cc1cc(C2(c3cc(C)c(O)c(C)c3)C(=O)N(Cc3cccc(Br)c3)c3ccccc32)cc(C)c1O [Example 64, 1-(3-Bromo-benzyl)-3,3-bis-(4-hydroxy-3,5-dimethyl-phenyl)-1,3-dihydro-indol-2-one]
Ki: ≤ 500 nM

Cc1cc(C2(c3cc(C)c(O)c(C)c3)C(=O)N(Cc3ccccc3[N+](=O)[O-])c3ccccc32)cc(C)c1O [Example 65, 3,3-Bis-(4-hydroxy-3,5-dimethyl-phenyl)-1-(2-nitro-benzyl)-1,3-dihydro-indol-2-one]
Ki: ≤ 500 nM

Cc1cc(C2(c3cc(C)c(O)c(C)c3)C(=O)N(Cc3cccc(F)c3F)c3ccccc32)cc(C)c1O [Example 66, 1-(2,3-Difluoro-benzyl)-3,3-bis-(4-hydroxy-3,5-dimethyl-phenyl)-1,3-dihydro-indol-2-one]
Ki: ≤ 500 nM

Cc1cc(C2(c3cc(C)c(O)c(C)c3)C(=O)N(Cc3ccc(OC(F)(F)F)cc3)c3ccccc32)cc(C)c1O [Example 67, 3,3-Bis-(4-hydroxy-3,5-dimethyl-phenyl)-1-(4-trifluoromethoxy-benzyl)-1,3-dihydro-indol-2-one]
Ki: ≤ 500 nM

Cc1cc(C2(c3cc(C)c(O)c(C)c3)C(=O)N(Cc3ccc(C(F)(F)F)cc3C(F)(F)F)c3ccccc32)cc(C)c1O [Example 68, 1-(2,4-Bis-trifluoromethyl-benzyl)-3,3-bis-(4-hydroxy-3,5-dimethyl-phenyl)-1,3-dihydro-indol-2-one]
Ki: ≤ 1000 nM

Cc1cc(C2(c3cc(C)c(O)c(C)c3)C(=O)N(Cc3cccc(C)c3F)c3ccccc32)cc(C)c1O [Example 70, 1-(2-Fluoro-3-methyl-benzyl)-3,3-bis-(4-hydroxy-3,5-dimethyl-phenyl)-1,3-dihydro-indol-2-one]
Ki: ≤ 500 nM

Cc1cc(C2(c3cc(C)c(O)c(C)c3)C(=O)N(Cc3ccc([N+](=O)[O-])o3)c3ccccc32)cc(C)c1O [Example 73, 3,3-Bis-(4-hydroxy-3,5-dimethyl-phenyl)-1-(5-nitro-furan-2-ylmethyl)-1,3-dihydro-indol-2-one]
Ki: ≤ 500 nM

Cc1cc(C2(c3cc(C)c(O)c(C)c3)C(=O)N(Cc3ccc(OCc4ccccc4)cc3)c3ccccc32)cc(C)c1O [Example 74, 1-(4-Benzyloxy-benzyl)-3,3-bis-(4-hydroxy-3,5-dimethyl-phenyl)-1,3-dihydro-indol-2-one]
Ki: ≤ 1000 nM

Cc1cc(C2(c3cc(C)c(O)c(C)c3)C(=O)N(Cc3c(F)cccc3Cl)c3ccccc32)cc(C)c1O [Example 76, 1-(2-Chloro-6-fluoro-benzyl)-3,3-bis-(4-hydroxy-3,5-dimethyl-phenyl)-1,3-dihydro-indol-2-one]
Ki: ≤ 500 nM

CCCCCN1C(=O)C(c2cc(C)c(O)c(C)c2)(c2cc(C)c(O)c(C)c2)c2ccccc21 [Example 77, 3,3-Bis-(4-hydroxy-3,5-dimethyl-phenyl)-1-pentyl-1,3-dihydro-indol-2-one]
Ki: ≤ 500 nM

Cc1cc(C2(c3cc(C)c(O)c(C)c3)C(=O)N(CC#N)c3ccccc32)cc(C)c1O [Example 78, [3,3-Bis-(4-hydroxy-3,5-dimethyl-phenyl)-2-oxo-2,3-dihydro-indol-1-yl]-acetonitrile]
Ki: ≤ 500 nM

Cc1cc(C2(c3cc(C)c(O)c(C)c3)C(=O)N(Cc3ccccc3OC(F)F)c3ccccc32)cc(C)c1O [Example 79, 1-(2-Difluoromethoxy-benzyl)-3,3-bis-(4-hydroxy-3,5-dimethyl-phenyl)-1,3-dihydro-indol-2-one]
Ki: ≤ 500 nM

CCOCCN1C(=O)C(c2cc(C)c(O)c(C)c2)(c2cc(C)c(O)c(C)c2)c2ccccc21 [Example 80, 1-(2-Ethoxy-ethyl)-3,3-bis-(4-hydroxy-3,5-dimethyl-phenyl)-1,3-dihydro-indol-2-one]
Ki: ≤ 500 nM

Cc1cc(C2(c3cc(C)c(O)c(C)c3)C(=O)N(Cc3ccc(Cl)cc3F)c3ccccc32)cc(C)c1O [Example 83, 1-(4-Chloro-2-fluoro-benzyl)-3,3-bis-(4-hydroxy-3,5-dimethyl-phenyl)-1,3-dihydro-indol-2-one]
Ki: ≤ 500 nM

Cc1cc(C2(c3cc(C)c(O)c(C)c3)C(=O)N(Cc3ccc(-c4csnn4)cc3)c3ccccc32)cc(C)c1O [Example 84, 3,3-Bis-(4-hydroxy-3,5-dimethyl-phenyl)-1-(4-[1,2,3]thiadiazol-4-yl-benzyl)-1,3-dihydro-indol-2-one]
Ki: ≤ 500 nM

Cc1cc(C2(c3cc(C)c(O)c(C)c3)C(=O)N(Cc3cccc([N+](=O)[O-])c3)c3ccccc32)cc(C)c1O [Example 85, 3,3-Bis-(4-hydroxy-3,5-dimethyl-phenyl)-1-(3-nitro-benzyl)-1,3-dihydro-indol-2-one]
Ki: ≤ 500 nM

Cc1cc(C2(c3cc(C)c(O)c(C)c3)C(=O)N(Cc3noc(C4CCC4)n3)c3ccccc32)cc(C)c1O [Example 86, 1-(5-Cyclobutyl-[1,2,4]oxadiazol-3-ylmethyl)-3,3-bis-(4-hydroxy-3,5-dimethyl-phenyl)-1,3-dihydro-indol-2-one]
Ki: ≤ 500 nM

Cc1cc(C2(c3cc(C)c(O)c(C)c3)C(=O)N(Cc3noc(-c4ccco4)n3)c3ccccc32)cc(C)c1O [Example 87, 1-(5-Furan-2-yl-[1,2,4]oxadiazol-3-ylmethyl)-3,3-bis-(4-hydroxy-3,5-dimethyl-phenyl)-1,3-dihydro-indol-2-one]
Ki: ≤ 500 nM

CCc1nc(CN2C(=O)C(c3cc(C)c(O)c(C)c3)(c3cc(C)c(O)c(C)c3)c3ccccc32)cs1 [Example 90, 1-(2-Ethyl-thiazol-4-ylmethyl)-3,3-bis-(4-hydroxy-3,5-dimethyl-phenyl)-1,3-dihydro-indol-2-one]
Ki: ≤ 1000 nM

Cc1cc(C2(c3cc(C)c(O)c(C)c3)C(=O)N(Cc3csc(-c4ccccc4)n3)c3ccccc32)cc(C)c1O [Example 91, 3,3-Bis-(4-hydroxy-3,5-dimethyl-phenyl)-1-(2-phenyl-thiazol-4-ylmethyl)-1,3-dihydro-indol-2-one]
Ki: ≤ 10000 nM

Cc1ccc2c(c1)C(c1cc(C)c(O)c(C)c1)(c1cc(C)c(O)c(C)c1)C(=O)N2Cc1csc(-c2ccccc2)n1 [Example 92, 3,3-Bis-(4-hydroxy-3,5-dimethyl-phenyl)-5-methyl-1-(2-phenyl-thiazol-4-ylmethyl)-1,3-dihydro-indol-2-one]
Ki: ≤ 500 nM

COc1ccc(-c2nc(CN3C(=O)C(c4cc(C)c(O)c(C)c4)(c4cc(C)c(O)c(C)c4)c4ccccc43)cs2)cc1 [Example 94, 3,3-Bis-(4-hydroxy-3,5-dimethyl-phenyl)-1-[2-(4-methoxy-phenyl)-thiazol-4-ylmethyl]-1,3-dihydro-indol-2-one]
Ki: ≤ 10000 nM
